For 15 compounds, IC50 results are on record in BindingDB's records for doi:10.1016/j.bmcl.2009.02.015 (Pfizer, 2009).

Molecules are shown by their SMILES.

The target of this test is Cyclin-dependent kinase 2 (Homo sapiens) (UniProt P24941). As to the kind of experiment: Inhibition of CDK2.
`COc1ccc2sc3c(c2c1)SCCNC3=O`: the half-maximal inhibitory concentration (IC50) turned out to be 150 nM. That is a sub-micromolar value.

Take `COc1ccc2sc3c(c2c1)NCCNC3=O` [3-Methoxy-5,6,7,8-tetrahydro-10-thia-5,8-diaza-benzo[a]azulen-9-one]: the IC50 was 160 nM. The IC50 values of the last two compounds are within 1.5-fold of each other.

Compound `COc1ccc2sc3c(c2c1)CCCNC3=O` [3-Methoxy-5,6,7,8-tetrahydro-10-thia-8-aza-benzo[a]azulen-9-one] displayed an IC50 of 360 nM.

For `COC(=O)COc1ccc2sc3c(c2c1)NC[C@@H](C)NC3=O` [((R)-7-Methyl-9-oxo-6,7,8,9-tetrahydro-5H-10-thia-5,8-diaza-benzo[a]azulen-3-yloxy)-acetic acid methyl ester], half-maximal inhibition (IC50) required 3090 nM.

Compound `COCCOc1ccc2sc3c(c2c1)NC[C@@H](C)NC3=O` [(R)-3-(2-Methoxy-ethoxy)-7-methyl-5,6,7,8-tetrahydro-10-thia-5,8-diaza-benzo[a]azulen-9-one] had an IC50 of 81 nM.

In turn, `COc1cccc(COc2ccc3sc4c(c3c2)NC[C@@H](C)NC4=O)c1` [(R)-3-(3-Methoxy-benzyloxy)-7-methyl-5,6,7,8-tetrahydro-10-thia-5,8-diaza-benzo[a]azulen-9-one] displayed an IC50 of 64 nM.

In turn, `C[C@@H]1CNc2c(sc3ccc(OCC4CC4)cc23)C(=O)N1` [(R)-3-Cyclopropylmethoxy-7-methyl-5,6,7,8-tetrahydro-10-thia-5,8-diaza-benzo[a]azulen-9-one] yielded an IC50 of 52 nM.

Regarding `C[C@@H]1CNc2c(sc3ccc(O)cc23)C(=O)N1` [(R)-3-Hydroxy-7-methyl-5,6,7,8-tetrahydro-10-thia-5,8-diaza-benzo[a]azulen-9-one], the half-inhibitory concentration (IC50) was determined as 26 nM. This IC50 is about 2-fold lower than that of the compound before.

On to `CC(C)COc1ccc2sc3c(c2c1)NC[C@@H](C)NC3=O` [(R)-3-Isobutoxy-7-methyl-5,6,7,8-tetrahydro-10-thia-5,8-diaza-benzo[a]azulen-9-one], for which the IC50 was found to be 11 nM.

`CCCNC[C@@H]1CNc2c(sc3ccc(OC)cc23)C(=O)N1` [(R)-3-Methoxy-7-propylaminomethyl-5,6,7,8-tetrahydro-10-thia-5,8-diaza-benzo[a]azulen-9-one]: the 50% inhibitory concentration (IC50) amounted to 2600 nM.

In turn, `COc1ccc2sc3c(c2c1)NC[C@@H](CNCc1ccccc1)NC3=O` [(R)-7-(Benzylamino-methyl)-3-methoxy-5,6,7,8-tetrahydro-10-thia-5,8-diaza-benzo[a]azulen-9-one] displayed an IC50 of 2700 nM.

`COc1ccc2sc3c(c2c1)NC[C@@H](CN)NC3=O` [(R)-7-Aminomethyl-3-methoxy-5,6,7,8-tetrahydro-10-thia-5,8-diaza-benzo[a]azulen-9-one] had an IC50 of 146 nM.

`CCNC[C@@H]1CNc2c(sc3ccc(OC)cc23)C(=O)N1` [(R)-7-Ethylaminomethyl-3-methoxy-5,6,7,8-tetrahydro-10-thia-5,8-diaza-benzo[a]azulen-9-one] had an IC50 of 3100 nM.

As for `COc1ccc2sc3c(c2c1)NC[C@@H](CO)NC3=O` [(S)-7-Hydroxymethyl-3-methoxy-5,6,7,8-tetrahydro-10-thia-5,8-diaza-benzo[a]azulen-9-one], the IC50 worked out at 25 nM.

Compound `COc1ccc2sc3c(c2c1)NC[C@@H](CN(C)Cc1ccccc1)NC3=O` [(S)-7-[(Benzyl-methyl-amino)-methyl]-3-methoxy-5,6,7,8-tetrahydro-10-thia-5,8-diaza-benzo[a]azulen-9-one] came in with an IC50 of 3170 nM.

The IC50 is the midpoint of a concentration-inhibition curve. The low end stands for greater potency in that assay, the high end for weaker potency in that assay.
